{"source": "patent US6706663B2", "about": "“Herbicidal 3-heterocyclic substituted benzisothiazole and benzisoxazole compounds” (Wyeth, priority 2000, dated 2004)", "key": {"[1]": {"test_system": "ABUTH (Abutilon theophrasti)", "assay": "Postemergence herbicidal evaluation", "format": "in vivo, Medic.", "conditions": "postemergence", "summary_of_the_method": "(§1)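 Visual 0–9 injury scores versus control plants, covering stand, vigour, malformation, size, chlorosis and general appearance, taken four to five weeks post-spray and averaged over replicate tests. Plants were sprayed at roughly two weeks old and held on greenhouse benches.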"}, "[2]": {"test_system": "AMBEL (Ambrosia artemisifolia)", "assay": "Postemergence herbicidal evaluation", "format": "in vivo, L.", "conditions": "postemergence", "summary_of_the_method": "as §1"}, "[3]": {"test_system": "CASOB (Cassia obtusifolia)", "assay": "Postemergence herbicidal evaluation", "format": "in vivo, L.", "conditions": "postemergence, rate 0.0320 kg/ha", "summary_of_the_method": "as §1"}, "[4]": {"test_system": "CHEAL (Chenopodium album)", "assay": "Postemergence herbicidal evaluation", "format": "in vivo, L.", "conditions": "postemergence", "summary_of_the_method": "as §1"}, "[5]": {"test_system": "IPOHE (Ipomoea hederacea)", "assay": "Postemergence herbicidal evaluation", "format": "in vivo, (L.) Jacq.", "conditions": "postemergence", "summary_of_the_method": "as §1"}, "[6]": {"test_system": "GLXMAW (Soybean, Williams)", "assay": "Postemergence herbicidal evaluation", "format": "in vivo, Glycine max, (L.) Merr. cv Williams", "conditions": "postemergence, rate 0.0320 kg/ha", "summary_of_the_method": "as §1"}, "[7]": {"test_system": "ORYSAT (Rice, Tebonnet)", "assay": "Postemergence herbicidal evaluation", "format": "in vivo, Oryza sativa, (L.) Tebonnet", "conditions": "postemergence, rate 0.0320 kg/ha", "summary_of_the_method": "as §1"}, "[8]": {"test_system": "ABUTH (Abutilon theophrasti)", "assay": "Preemergence herbicidal evaluation", "format": "in vivo, Medic.", "conditions": "rated 4-5 weeks after treatment"}, "[9]": {"test_system": "AMBEL (Ambrosia artemisifolia)", "assay": "Preemergence herbicidal evaluation", "format": "in vivo, L.", "conditions": "rated 4-5 weeks after treatment", "summary_of_the_method": "(§2)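 Steps: mix seeds with potting soil; plant on ~1 inch soil per cup; spray compound in aqueous acetone; hold on greenhouse benches with routine watering; rate 0–9 visually against control at 4–5 weeks.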"}, "[10]": {"test_system": "CASOB (Cassia obtusifolia)", "assay": "Preemergence herbicidal evaluation", "format": "in vivo, L.", "conditions": "rated 4-5 weeks after treatment", "summary_of_the_method": "as §2"}, "[11]": {"test_system": "CHEAL (Chenopodium album)", "assay": "Preemergence herbicidal evaluation", "format": "in vivo, L.", "conditions": "rated 4-5 weeks after treatment", "summary_of_the_method": "as §2"}, "[12]": {"test_system": "IPOHE (Ipomoea hederacea)", "assay": "Preemergence herbicidal evaluation", "format": "in vivo, (L.) Jacq.", "conditions": "rated 4-5 weeks after treatment"}, "[13]": {"test_system": "ECHCG (Echinochloa crus-galli)", "assay": "Preemergence herbicidal evaluation", "format": "in vivo, (L.) Beau", "conditions": "rated 4-5 weeks after treatment", "summary_of_the_method": "as §2"}, "[14]": {"test_system": "SETVI (Setaria viridis)", "assay": "Preemergence herbicidal evaluation", "format": "in vivo, (L.) Beau", "conditions": "rated 4-5 weeks after treatment", "summary_of_the_method": "as §2"}, "[15]": {"test_system": "GLXMAW (Soybean, Williams)", "assay": "Preemergence herbicidal evaluation", "format": "in vivo, Glycine max, (L.) Merr. cv Williams", "conditions": "rated 4-5 weeks after treatment"}, "[16]": {"test_system": "TRZAWR (Wheat, Winter, cv Riband)", "assay": "Preemergence herbicidal evaluation", "format": "in vivo, Triticum aestivum", "conditions": "rated 4-5 weeks after treatment", "summary_of_the_method": "as §2"}, "[17]": {"test_system": "ZEAMX (Corn, Field)", "assay": "Preemergence herbicidal evaluation", "format": "in vivo, Zea mays, L.", "conditions": "rated 4-5 weeks after treatment"}, "[18]": {"test_system": "CYPIR (Cyperus iria)", "assay": "Flooded paddy, preemergence weed control", "format": "in vivo", "conditions": "rated 3-4 weeks after treatment, 0-9 rating scale", "summary_of_the_method": "(§3)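 Silt loam, sowing depth ≤0.5 cm; permanent flood 1.5–3 cm above soil; greenhouse culture after treatment. Readout: 0-9 visual scale (stand, vigor, malformation, size, chlorosis, appearance) vs control.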"}, "[19]": {"test_system": "MOOVA (Monochoria vaginalis)", "assay": "Flooded paddy, preemergence weed control", "format": "in vivo, Presl.", "conditions": "rated 3-4 weeks after treatment, 0-9 rating scale", "summary_of_the_method": "as §3"}, "[20]": {"test_system": "ORYSAT (Rice, Tebonnet)", "assay": "Flooded paddy, post-transplant rice tolerance", "format": "in vivo, Oryza sativa, (L.) Tebonnet", "conditions": "flooded paddy, post-transplant rice, rated 3-4 weeks after treatment, 0-9 rating scale", "summary_of_the_method": "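Steps: transplant two ten-day-old seedlings into silt loam; flood to 1.5-3 cm above soil; apply herbicide post-transplant; maintain water on greenhouse benches; rate stand, vigor, malformation, size and chlorosis on a 0-9 visual scale versus control.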"}}, "data": [{"smiles": "Cn1c(C(F)(F)F)cc(=O)n(-c2cc3c(C4OCCO4)nsc3cc2F)c1=O", "note": "[Compound 61, 3-[3-(1,3-dioxolan-2-yl)-6-fluoro-1,2-benzisothiazol-5-yl]-1-methyl-6-(trifluoromethyl)uracil]", "values": [{"measurement": "ABUTH herbicidal rating", "setting": "[1]; rate 0.0320 kg/ha", "value": 9.0}, {"measurement": "ABUTH herbicidal rating", "setting": "[1]; rate 0.0620 kg/ha", "value": 9.0}, {"measurement": "AMBEL herbicidal rating", "setting": "[2]; rate 0.0320 kg/ha", "value": 9.0}, {"measurement": "AMBEL herbicidal rating", "setting": "[2]; rate 0.0620 kg/ha", "value": 9.0}, {"measurement": "CASOB herbicidal rating", "setting": "[3]", "value": 9.0}, {"measurement": "CHEAL herbicidal rating", "setting": "[4]; rate 0.0320 kg/ha", "value": 9.0}, {"measurement": "CHEAL herbicidal rating", "setting": "[4]; rate 0.0620 kg/ha", "value": 9.0}, {"measurement": "IPOHE herbicidal rating", "setting": "[5]; rate 0.0320 kg/ha", "value": 9.0}, {"measurement": "IPOHE herbicidal rating", "setting": "[5]; rate 0.0620 kg/ha", "value": 9.0}, {"measurement": "GLXMAW herbicidal rating", "setting": "[6]", "value": 9.0}, {"measurement": "ORYSAT herbicidal rating", "setting": "[7]", "value": 5.5}, {"measurement": "Preemergence herbicidal rating ABUTH", "setting": "[8]; Rate 0.0002 kg/ha", "value": 0.0}, {"measurement": "Preemergence herbicidal rating ABUTH", "setting": "[8]; Rate 0.0160 kg/ha", "value": 9.0}, {"measurement": "Preemergence herbicidal rating ABUTH", "setting": "[8]; Rate 0.0320 kg/ha", "value": 9.0}, {"measurement": "Preemergence herbicidal rating AMBEL", "setting": "[9]; Rate 0.0002 kg/ha", "value": 0.0}, {"measurement": "Preemergence herbicidal rating AMBEL", "setting": "[9]; Rate 0.0160 kg/ha", "value": 9.0}, {"measurement": "Preemergence herbicidal rating AMBEL", "setting": "[9]; Rate 0.0320 kg/ha", "value": 9.0}, {"measurement": "Preemergence herbicidal rating CASOB", "setting": "[10]; Rate 0.0002 kg/ha", "value": 0.0}, {"measurement": "Preemergence herbicidal rating CASOB", "setting": "[10]; Rate 0.0160 kg/ha", "value": 7.3}, {"measurement": "Preemergence herbicidal rating CASOB", "setting": "[10]; Rate 0.0320 kg/ha", "value": 7.0}, {"measurement": "Preemergence herbicidal rating CHEAL", "setting": "[11]; Rate 0.0002 kg/ha", "value": 2.0}, {"measurement": "Preemergence herbicidal rating CHEAL", "setting": "[11]; Rate 0.0160 kg/ha", "value": 9.0}, {"measurement": "Preemergence herbicidal rating CHEAL", "setting": "[11]; Rate 0.0320 kg/ha", "value": 9.0}, {"measurement": "Preemergence herbicidal rating IPOHE", "setting": "[12]; Rate 0.0002 kg/ha", "value": 0.0}, {"measurement": "Preemergence herbicidal rating IPOHE", "setting": "[12]; Rate 0.0160 kg/ha", "value": 9.0}, {"measurement": "Preemergence herbicidal rating IPOHE", "setting": "[12]; Rate 0.0320 kg/ha", "value": 9.0}, {"measurement": "Preemergence herbicidal rating ECHCG", "setting": "[13]; Rate 0.0002 kg/ha", "value": 0.0}, {"measurement": "Preemergence herbicidal rating ECHCG", "setting": "[13]; Rate 0.0160 kg/ha", "value": 9.0}, {"measurement": "Preemergence herbicidal rating ECHCG", "setting": "[13]; Rate 0.0320 kg/ha", "value": 9.0}, {"measurement": "Preemergence herbicidal rating SETVI", "setting": "[14]; Rate 0.0002 kg/ha", "value": 0.0}, {"measurement": "Preemergence herbicidal rating SETVI", "setting": "[14]; Rate 0.0160 kg/ha", "value": 9.0}, {"measurement": "Preemergence herbicidal rating SETVI", "setting": "[14]; Rate 0.0320 kg/ha", "value": 9.0}, {"measurement": "Preemergence herbicidal rating GLXMAW", "setting": "[15]; Rate 0.0002 kg/ha", "value": 0.0}, {"measurement": "Preemergence herbicidal rating GLXMAW", "setting": "[15]; Rate 0.0160 kg/ha", "value": 9.0}, {"measurement": "Preemergence herbicidal rating GLXMAW", "setting": "[15]; Rate 0.0320 kg/ha", "value": 9.0}, {"measurement": "Preemergence herbicidal rating TRZAWR", "setting": "[16]; Rate 0.0002 kg/ha", "value": 0.0}, {"measurement": "Preemergence herbicidal rating TRZAWR", "setting": "[16]; Rate 0.0160 kg/ha", "value": 8.5}, {"measurement": "Preemergence herbicidal rating TRZAWR", "setting": "[16]; Rate 0.0320 kg/ha", "value": 9.0}, {"measurement": "Preemergence herbicidal rating ZEAMX", "setting": "[17]; Rate 0.0002 kg/ha", "value": 0.0}, {"measurement": "Preemergence herbicidal rating ZEAMX", "setting": "[17]; Rate 0.0160 kg/ha", "value": 8.3}, {"measurement": "Preemergence herbicidal rating ZEAMX", "setting": "[17]; Rate 0.0320 kg/ha", "value": 9.0}, {"measurement": "herbicidal rating, CYPIR", "setting": "[18]; rate 0.0080 kg/ha", "value": 8.7}, {"measurement": "herbicidal rating, CYPIR", "setting": "[18]; rate 0.0320 kg/ha", "value": 9.0}, {"measurement": "herbicidal rating, CYPIR", "setting": "[18]; rate 0.1250 kg/ha", "value": 9.0}, {"measurement": "herbicidal rating, MOOVA", "setting": "[19]; rate 0.0080 kg/ha", "value": 8.5}, {"measurement": "herbicidal rating, MOOVA", "setting": "[19]; rate 0.0320 kg/ha", "value": 9.0}, {"measurement": "herbicidal rating, MOOVA", "setting": "[19]; rate 0.1250 kg/ha", "value": 9.0}, {"measurement": "herbicidal rating, ORYSAT (rice tolerance)", "setting": "[20]; rate 0.0080 kg/ha", "value": 8.0}, {"measurement": "herbicidal rating, ORYSAT (rice tolerance)", "setting": "[20]; rate 0.0320 kg/ha", "value": 9.0}, {"measurement": "herbicidal rating, ORYSAT (rice tolerance)", "setting": "[20]; rate 0.1250 kg/ha", "value": 9.0}]}]}
